# According to patent US20250313563A1, “GLYCOGEN SYNTHASE KINASE 3 INHIBITORS AND USES THEREOF” (The Broad Institute, Inc., priority 2022, published 2025):
# Like-named read-outs stand apart in the source and are kept apart here.
# Key:
# [1] = target: GSK3b (GST-full length GSK3b) (Homo sapiens (Human), UniProt P49841); test: GSK3b TR-FRET kinase assay; format: biochemical
# How it was run: (§1)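 In this time-resolved FRET format, kinase reactions contained 200 nM biotinylated, S645-phosphorylated glycogen synthase 631-650 peptide and either isoform-specific ATP (2 μM GSK3b, 4 μM GSK3α) or 1 mM ATP. They were quenched with EDTA after 100 min at ambient temperature. Inhibition curves gave IC50 values.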
# [2] = target: GSK3α (GST-full length GSK3α) (Homo sapiens (Human), UniProt P49840); test: GSK3α TR-FRET kinase assay; format: biochemical
# How it was run: as §1
# [3] = 1 nM GSK3b, 2 μM ATP, 30 minute preincubation, read-out: GSK3-B TR-FRET BIOCHEMICAL (TR-FRET), IC50
# [4] = 1 nM GSK3α, 4 μM ATP, 30 minute preincubation, read-out: GSK3-A TR-FRET BIOCHEMICAL (TR-FRET), IC50
# [5] = 1 nM GSK3b, 2 μM ATP, 30 minute preincubation, Table 16, read-out: GSK3-B TR-FRET BIOCHEMICAL (TR-FRET), IC50
# [6] = 1 nM GSK3α, 4 μM ATP, 30 minute preincubation, Table 16, read-out: GSK3-A TR-FRET BIOCHEMICAL (TR-FRET), IC50
# [7] = 1 nM GSK3b, 2 μM ATP, 30 minute preincubation, geometric mean, read-out: GSK3-B TR-FRET BIOCHEMICAL (TR-FRET), GMean, IC50
# [8] = 1 nM GSK3α, 4 μM ATP, 30 minute preincubation, geometric mean, read-out: GSK3-A TR-FRET BIOCHEMICAL (TR-FRET), GMean, IC50
# [9] = 1 nM GSK3b, 2 μM ATP, 30 minute preincubation, Table 16, read-out: GSK3-B TR-FRET BIOCHEMICAL (TR-FRET)
# [10] = 1 nM GSK3α, 4 μM ATP, 30 minute preincubation, Table 16, read-out: GSK3-A TR-FRET BIOCHEMICAL (TR-FRET)
# [11] = GSK3-B (TR-FRET 1 mM ATP), GMean, IC50, 1 mM ATP, geometric mean
# [12] = GSK3-A (TR-FRET 1 mM ATP), GMean, IC50, 1 mM ATP, geometric mean
# [13] = read-out: GSK3-B (TR-FRET 1 mM ATP), GMean, IC50, 1 mM ATP, geometric mean
# [14] = read-out: GSK3-A (TR-FRET 1 mM ATP), GMean, IC50, 1 mM ATP, geometric mean
# Sequence of GSK3b (GST-full length GSK3b) (P49841 whole entry, canonical isoform): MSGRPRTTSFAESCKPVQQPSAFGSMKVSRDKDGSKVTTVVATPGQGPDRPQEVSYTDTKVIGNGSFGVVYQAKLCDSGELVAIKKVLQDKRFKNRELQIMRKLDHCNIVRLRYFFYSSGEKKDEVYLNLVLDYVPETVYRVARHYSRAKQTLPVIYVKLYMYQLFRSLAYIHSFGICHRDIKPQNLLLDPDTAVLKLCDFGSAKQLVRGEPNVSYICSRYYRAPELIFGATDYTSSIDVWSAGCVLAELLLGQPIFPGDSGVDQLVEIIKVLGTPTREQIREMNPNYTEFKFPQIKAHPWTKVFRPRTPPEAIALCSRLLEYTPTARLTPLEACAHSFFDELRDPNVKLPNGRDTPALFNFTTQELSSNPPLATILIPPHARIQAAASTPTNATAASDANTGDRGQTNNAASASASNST
# Sequence of GSK3α (GST-full length GSK3α) (P49840 whole entry): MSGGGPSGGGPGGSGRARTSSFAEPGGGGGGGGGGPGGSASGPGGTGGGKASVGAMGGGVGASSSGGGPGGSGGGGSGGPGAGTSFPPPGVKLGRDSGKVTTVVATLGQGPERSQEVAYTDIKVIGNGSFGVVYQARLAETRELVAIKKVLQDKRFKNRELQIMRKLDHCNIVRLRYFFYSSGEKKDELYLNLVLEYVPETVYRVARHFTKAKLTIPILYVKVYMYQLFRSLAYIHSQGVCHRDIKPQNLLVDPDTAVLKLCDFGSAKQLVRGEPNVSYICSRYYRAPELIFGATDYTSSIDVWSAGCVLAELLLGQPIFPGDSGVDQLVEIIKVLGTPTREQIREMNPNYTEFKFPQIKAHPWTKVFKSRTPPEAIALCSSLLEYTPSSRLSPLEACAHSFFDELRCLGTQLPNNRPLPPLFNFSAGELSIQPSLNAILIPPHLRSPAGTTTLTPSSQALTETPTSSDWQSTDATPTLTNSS
smiles,measurement,setting,value
CC1(C)CC(=O)C2=C(C1)Nc1n[nH]cc1[C@]21COC2(CN(C(=O)Cc3ccccc3)C2)C1 [Compound 948036],IC50,[1]; [3],100 to 1000 nM
same,IC50,[2]; [4],100 to 1000 nM
CC[C@]1(c2cccc(C(F)(F)F)c2)C2=C(CCN(c3cnn(C)c3C)C2=O)Nc2n[nH]cc21 [Compound 952257],IC50,[1]; [5],100 to 1000 nM
same,IC50,[2]; [6],≤ 100 nM
CCC1(c2cccc(Cl)c2)C2=C(CC(C)(C)CC2=O)Nc2n[nH]c(C)c21 (stereo not shown) [Compound 790611],IC50,[1]; [7],> 5000 nM
same,IC50,[2]; [8],> 5000 nM
CC1CCC12C1=C(CC(C)(C)CC1=O)Nc1n[nH]cc12 (stereo not shown) [Compound 949640],IC50,[1]; [9],1000 to 5000 nM
same,IC50,[2]; [10],100 to 1000 nM
COc1ccccc1S(=O)(=O)N1CCC2(CC1)C1=C(CC(C)(C)CC1=O)Nc1n[nH]cc12 [Compound 893310],IC50,[1]; [9],≤ 100 nM
same,IC50,[1]; [11],100 to 1000 nM
same,IC50,[2]; [10],≤ 100 nM
same,IC50,[2]; [12],≤ 100 nM
CCC1(c2cccc(-c3ccnnc3)c2)C2=C(CC(C)(C)CC2=O)Nc2n[nH]cc21 (stereo not shown) [Compound 927342],IC50,[1]; [5],≤ 100 nM
same,IC50,[2]; [6],≤ 100 nM
CC1(C)CC(=O)C2=C(C1)Nc1n[nH]cc1C21CN(CC2CCOCC2)C1 [Compound 943545],IC50,[1]; [5],> 5000 nM
same,IC50,[2]; [6],> 5000 nM
Cc1cnc2c(S(=O)(=O)N3CCC4(CC3)C3=C(CC(C)(C)CC3=O)Nc3n[nH]cc34)cccc2c1 [Compound 947614],IC50,[1]; [3],≤ 100 nM
same,IC50,[2]; [4],≤ 100 nM
CC[C@]1(c2cccc(C(F)(F)F)c2)C2=C(CC(C)(C)NC2=O)Nc2n[nH]c(F)c21 [Compound 957518],IC50,[1]; [5],100 to 1000 nM
same,IC50,[2]; [6],≤ 100 nM
CC[C@]1(c2cccc(-c3ccnn3C)c2)C2=C(CC3(CCS(=O)(=O)CC3)NC2=O)Nc2n[nH]cc21 [Compound 949394],IC50,[1]; [5],100 to 1000 nM
same,IC50,[2]; [6],≤ 100 nM
CC1(c2ccccc2)C2=C(CC3(CCCC3)CC2=O)Nc2n[nH]cc21 (stereo not shown) [Compound 789460],IC50,[1]; [7],100 to 1000 nM
same,IC50,[2]; [8],100 to 1000 nM
CCN1CC2(C1)C1=C(CC(C)(C)CC1=O)Nc1n[nH]cc12 [Compound 929448],IC50,[1]; [5],> 5000 nM
same,IC50,[2]; [6],> 5000 nM
CCC1(c2ccccc2)C2=C(CSC(C)(C)C2=O)Nc2n[nH]cc21 (stereo not shown) [Compound 862028],IC50,[1]; [3],1000 to 5000 nM
same,IC50,[2]; [4],100 to 1000 nM
CCC1(c2cccc(C3CC3)c2)C2=C(CC(C)(C)CC2=O)Nc2n[nH]cc21 (stereo not shown) [Compound 801316],IC50,[1]; [7],≤ 100 nM
same,IC50,[2]; [8],≤ 100 nM
CC1(C)CC(=O)C2=C(C1)Nc1n[nH]cc1C21COC2(CN(C(=O)C3CCCCC3)C2)C1 (stereo not shown) [Compound 947291],IC50,[1]; [3],100 to 1000 nM
same,IC50,[2]; [4],≤ 100 nM
CC[C@@]1(c2ccccc2)C2=C(C[C@@H](c3ccccc3)CC2=O)Nc2n[nH]cc21 [Compound 791265],IC50,[1]; [7],> 5000 nM
same,IC50,[2]; [8],1000 to 5000 nM
CC[C@@]1(c2cccc(C(F)(F)F)c2)C2=C(CNC2=O)Nc2n[nH]cc21 [Compound 917157],IC50,[1]; [9],> 5000 nM
same,IC50,[2]; [10],> 5000 nM
CC[C@@]1(c2cccc(C(F)(F)F)c2)C2=C(Nc3n[nH]cc31)[C@H](C)N(Cc1ccccc1)C2=O [Compound 930331],IC50,[1]; [3],100 to 1000 nM
same,IC50,[2]; [4],≤ 100 nM
Cn1cc(CN2CC3(C2)C2=C(CC(C)(C)CC2=O)Nc2n[nH]cc23)cn1 [Compound 929439],IC50,[1]; [5],> 5000 nM
same,IC50,[2]; [6],> 5000 nM
CCC1(c2cccc(Br)c2)C2=C(CC(C)(C)C(F)C2=O)Nc2n[nH]cc21 (stereo not shown) [Compound 835315],IC50,[1]; [7],≤ 100 nM
same,IC50,[1]; [13],1000 to 5000 nM
same,IC50,[2]; [8],≤ 100 nM
same,IC50,[2]; [14],100 to 1000 nM
CC[C@]1(c2cccc(-c3c(C)cnn3C)c2)C2=C(CC(C)(C)NC2=O)Nc2n[nH]cc21 [Compound 952021],IC50,[1]; [5],≤ 100 nM
same,IC50,[1]; [13],> 5000 nM
same,IC50,[2]; [6],≤ 100 nM
same,IC50,[2]; [14],100 to 1000 nM
CCC1(c2cccc(Br)c2)C2=C(CC(C)(C)CC2=O)Nc2n[nH]cc21 (stereo not shown) [Compound 790734],IC50,[1]; [7],> 5000 nM
same,IC50,[2]; [8],100 to 1000 nM
CCC1(c2cccc(-c3ccncc3C)c2)C2=C(CC(C)(C)CC2=O)Nc2n[nH]c(C)c21 (stereo not shown) [Compound 913022],IC50,[1]; [5],1000 to 5000 nM
same,IC50,[2]; [6],100 to 1000 nM
CC[C@@]1(c2cccc(-c3cn(C)nc3C(C)C)c2)C2=C(CC(C)(C)CC2=O)Nc2n[nH]c(C)c21 [Compound 913029],IC50,[1]; [5],≤ 100 nM
same,IC50,[2]; [6],≤ 100 nM
CC1(C)CC(=O)C2=C(C1)Nc1n[nH]cc1C21Cc2ccccc21 (stereo not shown) [Compound 917226],IC50,[1]; [5],100 to 1000 nM
same,IC50,[2]; [6],100 to 1000 nM
CCC1(c2cccc(C(F)(F)F)c2)C2=C(CCN(c3cccnc3)C2=O)Nc2n[nH]cc21 (stereo not shown) [Compound 947433],IC50,[1]; [7],> 5000 nM
same,IC50,[2]; [8],> 5000 nM
Cc1cc(S(=O)(=O)N2CCC3(CC2)C2=C(CC(C)(C)CC2=O)Nc2n[nH]cc23)cc(C)n1 [Compound 947616],IC50,[1]; [9],≤ 100 nM
same,IC50,[1]; [11],1000 to 5000 nM
same,IC50,[2]; [10],≤ 100 nM
same,IC50,[2]; [12],100 to 1000 nM
CN(C)C(=O)C1CCC2(CC1)C1=C(CC(C)(C)CC1=O)Nc1n[nH]cc12 (stereo not shown) [Compound 945395],IC50,[1]; [5],1000 to 5000 nM
same,IC50,[2]; [6],100 to 1000 nM
CC[C@]1(c2cccc(C(F)(F)F)c2)C2=C(CCN(c3cscn3)C2=O)Nc2n[nH]cc21 [Compound 952638],IC50,[1]; [5],> 5000 nM
same,IC50,[2]; [6],> 5000 nM
CCC1(c2cccc(-c3cnn4c3CCCC4)c2)C2=C(CC(C)(C)CC2=O)Nc2n[nH]cc21 (stereo not shown) [Compound 945543],IC50,[1]; [9],≤ 100 nM
same,IC50,[1]; [13],1000 to 5000 nM
same,IC50,[2]; [10],≤ 100 nM
same,IC50,[2]; [14],100 to 1000 nM
CCC1(c2cccc(-c3cnn4c3CCCC4)c2)C2=C(CC(C)(C)CC2=O)Nc2n[nH]c(C)c21 (stereo not shown) [Compound 913033],IC50,[1]; [5],1000 to 5000 nM
same,IC50,[2]; [6],100 to 1000 nM
CC[C@]1(c2cccc(-c3cnn(Cc4cccc(C(F)(F)F)c4)c3)c2)C2=C(CC(C)(C)NC2=O)Nc2n[nH]cc21 [Compound 951848],IC50,[1]; [5],100 to 1000 nM
same,IC50,[2]; [6],≤ 100 nM
CC[C@@]1(c2cccc(-c3c(C)c(C)nn3C)c2)C2=C(CC(C)(C)NC2=O)Nc2n[nH]cc21 [Compound 948818],IC50,[1]; [7],> 5000 nM
same,IC50,[2]; [8],> 5000 nM
CCC1(c2cccc(N(C)c3cccnn3)c2)C2=C(CC(C)(C)CC2=O)Nc2n[nH]cc21 (stereo not shown) [Compound 911976],IC50,[1]; [5],> 5000 nM
same,IC50,[2]; [6],100 to 1000 nM
CC1(C)CC(=O)C2=C(C1)Nc1n[nH]cc1[C@@]21CCc2c(F)cccc21 [Compound 806632],IC50,[1]; [7],> 5000 nM
same,IC50,[2]; [8],> 1670 nM
CC(=O)N1CC[C@]2(C1)C[C@]1(CO2)C2=C(CC(C)(C)CC2=O)Nc2n[nH]cc21 [Compound 948319],IC50,[1]; [3],100 to 1000 nM
same,IC50,[2]; [4],≤ 100 nM
CC1(C)CC(=O)C2=C(C1)Nc1n[nH]cc1C21CCCN(CC(F)F)CC1 (stereo not shown) [Compound 889574],IC50,[1]; [9],100 to 1000 nM
same,IC50,[2]; [10],100 to 1000 nM
CC1(C)CC(=O)C2=C(C1)Nc1n[nH]cc1C21CCN(S(=O)(=O)c2cnc3n2CCC3)CC1 [Compound 947467],IC50,[1]; [9],100 to 1000 nM
same,IC50,[2]; [10],≤ 100 nM
CCC1(c2cccc(-c3cc(C)nn3C)c2)C2=C(CC(C)(C)CC2=O)Nc2n[nH]cc21 (stereo not shown) [Compound 946097],IC50,[1]; [9],100 to 1000 nM
same,IC50,[2]; [10],≤ 100 nM
CC[C@@]1(c2cccc(-c3ccnc(C)c3)c2)C2=C(CC(C)(C)C2=O)Nc2n[nH]cc21 [Compound 950282],IC50,[1]; [5],100 to 1000 nM
same,IC50,[2]; [6],≤ 100 nM
CC1(C)CC(=O)C2=C(C1)Nc1n[nH]cc1C21CN(C(=O)c2ccccc2)C1 [Compound 893315],IC50,[1]; [5],> 5000 nM
same,IC50,[2]; [6],> 5000 nM
CC1(C)CC(=O)C2=C(C1)Nc1n[nH]cc1C21CCN(S(=O)(=O)c2c(F)cc(F)cc2F)CC1 [Compound 947484],IC50,[1]; [3],≤ 100 nM
same,IC50,[2]; [4],≤ 100 nM
